{"source": "paper PMC10353390", "about": "“Biological and Structural Analyses of New Potent Allosteric Inhibitors of HIV-1 Integrase” (Antimicrobial Agents and Chemotherapy, 2023)", "key": {"HIV-1 IN": {"target": "T1, HIV-1 IN (Human immunodeficiency virus type 1 group M subtype B, UniProt P12497)", "T1 construct": "made in house", "test": "HTRF IN multimerization assay", "assay_type": "biochemical", "conditions": "mean ± SD", "description": "A key property of INLAIs is the ability to promote HIV-1 IN homo-multimerization ([39][–][42]). […] The maximal signal (plateau) in our IN aggregation assay corresponds to the highest HTRF signal increase under saturating INLAI concentration, relative to baseline level. Thus, MUT916, MUT884, MUT871, and MUT872 increased HIV-1 IN aggregation 3.7 to 4.4-fold, while BDM-2, BI-224436, and S-I-82 did so 5 to 6-fold (Table 1)."}, "HXB2 HIV-1 strain": {"system": "HXB2 HIV-1 strain", "test": "Multiple-round infection assay in MT4 cells, HXB2", "assay_type": "cell-based", "conditions": "Human immunodeficiency virus 1, HXB2; multiple-round infection, MT4 cells; mean ± SD, n > 5; read-out: EC50 HXB2", "experimental": "Antiretroviral activity of BDM-2 and its analogs was first evaluated in lymphoblastoid cell line MT4 and in primary human T lymphocytes using NL4-3 and HXB2 laboratory HIV-1 isolates.\n(§1) MT4 cells growing exponentially at the density of 10^6/mL were infected with HIV-1 strain NL4-3 at a multiplicity of infection (MOI) of 0.001 for 2 h in the presence of different concentrations of compounds, and the CellTiter-Glo luminescent reagent (Promega) was used to quantify cell viability as described previously ([12])."}, "NL4-3 HIV-1 strain": {"system": "NL4-3 HIV-1 strain", "test": "Multiple-round infection assay in MT4 cells, NL4-3", "assay_type": "cell-based", "conditions": "MT4 cells"}, "[1]": {"test": "Cytotoxicity assay in MT4 cells", "assay_type": "cell-based", "conditions": "human, MT4 cells (proliferating human T-cell line), CellTiter-Glo", "description": "Growth inhibition was monitored in a proliferating human T-cell line (MT4) with different concentrations of compounds, using the CellTiter-Glo luminescent reagent (Promega), as previously described ([12])."}, "[2]": {"system": "VSV-G-pseudotyped NL4-3Δenv-luc", "test": "microbe, parasite or virus in culture", "assay_type": "cell-based, HIV-1"}, "[3]": {"system": "recombinant NL4-3 viruses with polymorphisms at IN positions 124 and 125", "test": "Multiple-round infection of MT4 cells with recombinant NL4-3 viruses polymorphic at IN positions 124 and 125", "assay_type": "cell-based, HIV-1", "description": "Located on the HIV-1 IN CCD dimerization interface, the principal INLAI binding pocket overlaps with a hot spot of amino acid sequence polymorphism involving IN residues 124 and 125 ([16]). To test if the new INLAIs maintained antiviral activity against major polymorphisms, we introduced all major combinations of residues found in circulating HIV-1 strains at positions 124 and 125 into NL4-3 HIV-1 molecular clone. In total, we evaluated 15 such combinations that collectively covered 98% of all HIV-1 clade polymorphisms involving these positions ([48]). To gauge effects on the antiviral activity, we calculated the EC50 fold change (FC) relative to wild type NL4-3 HIV-1 strain that features Thr124 and Thr125 (TT; specific polymorphisms are referred to by a single letter amino acid code).\nas §1"}, "[4]": {"system": "primary HIV-1 isolates with polymorphisms at IN positions 124 and 125", "test": "Multiple-round infection of MT4 cells with primary HIV-1 isolates polymorphic at IN positions 124 and 125", "assay_type": "cell-based", "conditions": "primary isolate", "experimental": "Next, we evaluated the potency of the BDM-2 series of INLAIs against several primary HIV-1 isolates with polymorphisms at IN positions 124 and 125.\nas §1"}, "[5]": {"system": "HIV-1 strains resistant to INSTIs, NRTIs, NNRTIs or PIs", "assay_type": "cell-based", "experimental": "To this end, we used both recombinant viruses constructed by introducing described drug resistance mutations into NL4-3 HIV-1 clone as well as drug-resistant clinical HIV-1 isolates.\nas §1"}, "[6]": {"system": "NL4-3 HIV-1 with INLAI-selected IN single point mutations", "assay_type": "cell-based"}, "[7]": {"target": "HIV-1 IN-LEDGF/p75 interaction (Human immunodeficiency virus type 1 group M subtype B, UniProt P12497)", "test": "biochemical"}, "[8]": {"target": "CCD of HIV-1 IN and IBD of LEDGF/p75 (Human immunodeficiency virus type 1 group M subtype B, UniProt P12497)", "test": "biochemical", "method": "The INLAIs were tested for the ability to inhibit the HIV-1 IN-LEDGF/p75 interaction in a homogeneous time-resolved fluorescence (HTRF) assay. Our assays used either full-length IN and LEDGF/p75 proteins or their respective minimally sufficient interaction domains: the CCD of HIV-1 IN and the IBD of LEDGF/p75 (Table 1).\nHTRF-based CCD-IBD interaction, IN-LEDGF/p75 interaction and IN multimerization assays were performed as described previously ([12])."}, "[9]": {"conditions": "INSTI-resistant, NL4-3 background"}}}
{"smiles": "Cc1ccc(C2CC2)c(-c2ccc3c(c2)CCCO3)c1[C@H](OC1CC1)C(=O)O", "note": "[MUT872]", "values": [{"measurement": "AC50", "setting": "HIV-1 IN; concentration for 50% maximum activation of multimerization", "value": "43 ± 11", "unit": "nM"}, {"measurement": "IN multimerization Plateau", "setting": "HIV-1 IN; maximum multimerization reached versus baseline", "value": "440 ± 48", "unit": "%"}, {"measurement": "EC50", "setting": "HXB2 HIV-1 strain", "value": "18 ± 1", "unit": "nM"}, {"measurement": "EC90", "setting": "NL4-3 HIV-1 strain; Human immunodeficiency virus 1, NL43, multiple-round infection, from dose response curves, read-out: EC90 NL4-3", "value": "61 ± 19", "unit": "nM"}, {"measurement": "EC50", "setting": "NL4-3 HIV-1 strain; Human immunodeficiency virus 1, NL43, multiple-round infection, mean ± SD, n > 5, read-out: EC50 NL4-3", "value": "45 ± 12", "unit": "nM"}, {"measurement": "Selectivity index CC50/EC50 NL4-3", "setting": "NL4-3 HIV-1 strain", "value": "3,088"}, {"measurement": "CC50", "setting": "[1]", "value": "139000 ± 29000", "unit": "nM"}, {"measurement": "EC50 ratio (single/multiple-round infection)", "setting": "[2]", "value": 196}, {"measurement": "EC50", "setting": "[2]; Human immunodeficiency virus 1, NL43, MT4, read-out: EC50 in single-round infection", "value": "8800 ± 300", "unit": "nM"}, {"measurement": "Fold change in EC50 relative to parental NL4-3, AA", "setting": "[3]; recombinant NL4-3, IN 124/125 AA", "value": 1}, {"measurement": "Fold change in EC50 relative to parental NL4-3, AM", "setting": "[3]; recombinant NL4-3, IN 124/125 AM", "value": 0.3}, {"measurement": "Fold change in EC50 relative to parental NL4-3, AT", "setting": "[3]; recombinant NL4-3, IN 124/125 AT", "value": 1}, {"measurement": "Fold change in EC50 relative to parental NL4-3, AV", "setting": "[3]; recombinant NL4-3, IN 124/125 AV", "value": 0.5}, {"measurement": "Fold change in EC50 relative to parental NL4-3, GA", "setting": "[3]; recombinant NL4-3, IN 124/125 GA", "value": 2}, {"measurement": "Fold change in EC50 relative to parental NL4-3, GT", "setting": "[3]; recombinant NL4-3, IN 124/125 GT", "value": 2}, {"measurement": "Fold change in EC50 relative to parental NL4-3, NA", "setting": "[3]; recombinant NL4-3, IN 124/125 NA", "value": 1}, {"measurement": "Fold change in EC50 relative to parental NL4-3, NT", "setting": "[3]; recombinant NL4-3, IN 124/125 NT", "value": 1}, {"measurement": "Fold change in EC50 relative to parental NL4-3, NV", "setting": "[3]; recombinant NL4-3, IN 124/125 NV", "value": 1}, {"measurement": "Fold change in EC50 relative to parental NL4-3, SA", "setting": "[3]; recombinant NL4-3, IN 124/125 SA", "value": 1}, {"measurement": "Fold change in EC50 relative to parental NL4-3, ST", "setting": "[3]; recombinant NL4-3, IN 124/125 ST", "value": 1}, {"measurement": "Fold change in EC50 relative to parental NL4-3, TA", "setting": "[3]; recombinant NL4-3, IN 124/125 TA", "value": 1}, {"measurement": "Fold change in EC50 relative to parental NL4-3, TM", "setting": "[3]; recombinant NL4-3, IN 124/125 TM", "value": 0.2}, {"measurement": "Fold change in EC50 relative to parental NL4-3, TV", "setting": "[3]; recombinant NL4-3, IN 124/125 TV", "value": 1}, {"measurement": "Fold change in EC50 relative to parental NL4-3, CAM2BBY (CRF02)", "setting": "[4]; IN 124/125 AA", "value": 1}, {"measurement": "Fold change in EC50 relative to parental NL4-3, E0836M4 (D)", "setting": "[4]; IN 124/125 AA", "value": 1}, {"measurement": "Fold change in EC50 relative to parental NL4-3, KER2008 (A)", "setting": "[4]; IN 124/125 AA", "value": 1}, {"measurement": "Fold change in EC50 relative to parental NL4-3, NP1525 (CRF01)", "setting": "[4]; IN 124/125 AA", "value": 1}, {"measurement": "Fold change in EC50 relative to parental NL4-3, NP1695 (CRF02)", "setting": "[4]; IN 124/125 AA", "value": 1}, {"measurement": "Fold change in EC50 relative to parental NL4-3, TZA125 (C)", "setting": "[4]; IN 124/125 AA", "value": 0.4}, {"measurement": "Fold change in EC50 relative to parental NL4-3, KSM4030 (A)", "setting": "[4]; IN 124/125 GA", "value": 2}, {"measurement": "Fold change in EC50 relative to parental NL4-3, vGA (C)", "setting": "[4]; IN 124/125 GA", "value": 4}, {"measurement": "Fold change in EC50 relative to parental NL4-3, 99ET14 (C)", "setting": "[4]; IN 124/125 NA", "value": 1}, {"measurement": "Fold change in EC50 relative to parental NL4-3, NP1538 (B)", "setting": "[4]; IN 124/125 NA", "value": 2}, {"measurement": "Fold change in EC50 relative to parental NL4-3, vNA_1 (B)", "setting": "[4]; IN 124/125 NA", "value": 1}, {"measurement": "Fold change in EC50 relative to parental NL4-3, vNA_2 (CRF02)", "setting": "[4]; IN 124/125 NA", "value": 2}, {"measurement": "Fold change in EC50 relative to parental NL4-3, vNV (B)", "setting": "[4]; IN 124/125 NV", "value": 1}, {"measurement": "Fold change in EC50 relative to parental NL4-3, vSA_1 (B)", "setting": "[4]; IN 124/125 SA", "value": 2}, {"measurement": "Fold change in EC50 relative to parental NL4-3, vSA_2 (CRF02)", "setting": "[4]; IN 124/125 SA", "value": 2}, {"measurement": "Fold change in EC50 relative to parental NL4-3, vTA_1 (B)", "setting": "[4]; IN 124/125 TA", "value": 2}, {"measurement": "Fold change in EC50 relative to parental NL4-3, vTA_2 (CRF02)", "setting": "[4]; IN 124/125 TA", "value": 2}, {"measurement": "Fold change in EC50 relative to NL4-3, E92Q", "setting": "[5]; [9]", "value": 1}, {"measurement": "Fold change in EC50 relative to NL4-3, G140S", "setting": "[5]; [9]", "value": 1}, {"measurement": "Fold change in EC50 relative to NL4-3, G140S/Q148H", "setting": "[5]; [9]", "value": 1}, {"measurement": "Fold change in EC50 relative to NL4-3, N155H", "setting": "[5]; [9]", "value": 1}, {"measurement": "Fold change in EC50 relative to NL4-3, Q148H", "setting": "[5]; [9]", "value": 1}, {"measurement": "Fold change in EC50 relative to NL4-3, Y143R", "setting": "[5]; [9]", "value": 0.5}, {"measurement": "Fold change in EC50 relative to NL4-3, NLAY351717", "setting": "[5]; NRTI-resistant clone", "value": 1}, {"measurement": "Fold change in EC50 relative to NL4-3, NLAY351753", "setting": "[5]; NRTI/NNRTI-resistant clone", "value": 1}, {"measurement": "Fold change in EC50 relative to NL4-3, K103N/Y181C", "setting": "[5]; NRTI/NNRTIs group, NL4-3 background", "value": 1}, {"measurement": "Fold change in EC50 relative to NL4-3, ARP-4595", "setting": "[5]; PI-resistant virus", "value": 1}, {"measurement": "Fold change in EC50 relative to NL4-3, ARP-4596", "setting": "[5]; PI-resistant virus", "value": 1}, {"measurement": "Fold change in EC50 relative to NL4-3, ARP-11801", "setting": "[5]; PI-resistant virus", "value": 2}, {"measurement": "Fold change in EC50 relative to NL4-3, ARP-11803", "setting": "[5]; PI-resistant virus", "value": 1}, {"measurement": "Fold change in EC50 relative to NL4-3, ARP-11807", "setting": "[5]; PI-resistant virus", "value": 1}, {"measurement": "Fold change in EC50 relative to NL4-3, ARP-11808", "setting": "[5]; PI-resistant virus", "value": 2}, {"measurement": "EC50 fold change compared to wild type NL4-3, A128T", "setting": "[6]", "value": 7}, {"measurement": "EC50 fold change compared to wild type NL4-3, H171Q", "setting": "[6]", "value": 1}, {"measurement": "EC50 fold change compared to wild type NL4-3, N222K", "setting": "[6]", "value": 2}, {"measurement": "EC50 fold change compared to wild type NL4-3, T174I", "setting": "[6]", "value": 15}, {"measurement": "EC50 fold change compared to wild type NL4-3, Y99H", "setting": "[6]", "value": 2}, {"measurement": "IC50", "setting": "[7]", "value": "170 ± 20", "unit": "nM"}, {"measurement": "IC50", "setting": "[8]", "value": "420 ± 70", "unit": "nM"}]}
